Test system: revascularization, unstable angina requiring hospitalization, MI, all causes of death, or stroke
Experiment: PROVE IT-TIMI 22: SNP by treatment interaction (high-dose atorvastatin vs standard-dose pravastatin), logistic regression (synergy index), primary composite endpoint
Format: in vivo, human
Details: atorvastatin vs pravastatin; for OR (SNP by treatment interaction, logistic regression): PROVE-IT; for OR: PROVEIT

CC(C)c1c(C(=O)Nc2ccccc2)c(-c2ccccc2)c(-c2ccc(F)cc2)n1CC[C@@H](O)C[C@@H](O)CC(=O)O [Atorvastatin, atorvastatin]
OR (SNP by treatment interaction, logistic regression) (rs992695, Imputed, allele C (A1), model DOM, NMISS 442): 1.216 | OR (SNP by treatment interaction, logistic regression) (rs9866421, Genotyped, allele C (A1), model REC, NMISS 443): 0.5895 | OR (SNP by treatment interaction, logistic regression) (rs9881685, Imputed, allele A (A1), model ADD, NMISS 440): 1.041 | OR (SNP by treatment interaction, logistic regression) (rs9881685, Imputed, allele A (A1), model DOM, NMISS 440): 1.041 | OR (SNP by treatment interaction, logistic regression) (rs9936999, Imputed, allele G (A1), model DOM, NMISS 266): 0.7758 | OR (marker rs2574, cohort, model rec, End-point CVD): 1.62 | OR (marker rs7508, caseonly, model dom, End-point CHD): 1.65 | OR (marker rs198464, cohort, model rec, End-point CHD): 1.44 | OR (marker rs198476, caseonly, model rec, End-point CHD): 1.85 | OR (marker rs264122, cohort, model dom, End-point CHD): 0.72 | OR (marker rs271046, caseonly, model rec, End-point CVD): 0.68 | OR (marker rs494111, caseonly, model rec, End-point CHD): 0.44 | OR (marker rs498657, caseonly, model add, End-point CHD): 1.57 | OR (marker rs619825, caseonly, model rec, End-point CHD): 0.40 | OR (marker rs646749, caseonly, model rec, End-point CHD): 0.40 | OR (marker rs694780, caseonly, model rec, End-point CHD): 0.40 | OR (marker rs892162, caseonly, model rec, End-point CHD): 0.64 | OR (marker rs974950, cohort, model dom, End-point CVD): 0.64 | OR (marker rs996022, caseonly, model rec, End-point CHD): 0.41 | OR (marker rs1003322, caseonly, model dom, End-point CHD): 1.41 | OR (marker rs1009748, cohort, model add, End-point CVD): 1.43 | OR (marker rs1136046, caseonly, model add, End-point CVD): 1.48 | OR (marker rs1190706, cohort, model dom, End-point CVD): 0.76 | OR (marker rs1266489, cohort, model dom, End-point CVD): 0.67 | OR (marker rs1336400, cohort, model dom, End-point CHD): 1.46 | OR (marker rs1344081, caseonly, model dom, End-point CVD): 1.31 | OR (marker rs1450092, caseonly, model add, End-point CHD): 0.81 | OR (marker rs1524962, caseonly, model add, End-point CHD): 0.80 | OR (marker rs1566221, cohort, model add, End-point CHD): 0.68 | OR (marker rs1727746, cohort, model dom, End-point CVD): 1.30 | OR (marker rs1798093, cohort, model rec, End-point CHD): 2.00 | OR (marker rs1942876, caseonly, model rec, End-point CHD): 0.41 | OR (marker rs2011318, caseonly, model add, End-point CHD): 0.63 | OR (marker rs2060022, caseonly, model rec, End-point CVD): 0.72 | OR (marker rs2108425, cohort, model dom, End-point CHD): 0.77 | OR (marker rs2110564, cohort, model dom, End-point CVD): 0.60 | OR (marker rs2113334, caseonly, model rec, End-point CVD): 0.29 | OR (marker rs2327412, cohort, model add, End-point CVD): 1.38 | OR (marker rs2505039, cohort, model add, End-point CHD): 0.84 | OR (marker rs2588350, cohort, model add, End-point CVD): 0.82 | OR (marker rs2648694, cohort, model rec, End-point CVD): 1.72 | OR (marker rs2655222, caseonly, model rec, End-point CHD): 0.23 | OR (marker rs2657940, caseonly, model add, End-point CHD): 1.20 | OR (marker rs2993156, caseonly, model dom, End-point CVD): 0.75 | OR (marker rs3763978, cohort, model add, End-point CVD): 0.84 | OR (marker rs4038018, caseonly, model dom, End-point CHD): 0.76 | OR (marker rs4240808, caseonly, model rec, End-point CVD): 0.56 | OR (marker rs4242281, caseonly, model rec, End-point CVD): 2.08 | OR (marker rs4420312, caseonly, model dom, End-point CHD): 0.59 | OR (marker rs4472926, caseonly, model dom, End-point CHD): 0.53 | OR (marker rs4660234, cohort, model dom, End-point CHD): 1.45 | OR (marker rs4787415, caseonly, model rec, End-point CHD): 0.62 | OR (marker rs4807536, caseonly, model dom, End-point CVD): 1.53 | OR (marker rs4836745, caseonly, model dom, End-point CVD): 0.65 | OR (marker rs4870109, caseonly, model rec, End-point CVD): 1.97 | OR (marker rs6427807, cohort, model dom, End-point CVD): 0.66 | OR (marker rs6539231, caseonly, model dom, End-point CVD): 0.68 | OR (marker rs6563805, caseonly, model add, End-point CHD): 0.53 | OR (marker rs6585412, cohort, model dom, End-point CVD): 1.39 | OR (marker rs6685920, cohort, model dom, End-point CVD): 1.45 | OR (marker rs6998016, caseonly, model rec, End-point CHD): 6.19 | OR (marker rs7018577, caseonly, model dom, End-point CHD): 1.44 | OR (marker rs7070244, caseonly, model add, End-point CVD): 1.30 | OR (marker rs7078016, cohort, model dom, End-point CVD): 1.41 | OR (marker rs7222186, caseonly, model dom, End-point CHD): 0.50 | OR (marker rs7276749, cohort, model dom, End-point CVD): 0.45 | OR (marker rs7332076, caseonly, model rec, End-point CVD): 2.40 | OR (marker rs7338174, caseonly, model dom, End-point CHD): 2.50 | OR (marker rs7449527, caseonly, model dom, End-point CHD): 1.53 | OR (marker rs7710039, caseonly, model dom, End-point CVD): 0.70 | OR (marker rs7839562, caseonly, model dom, End-point CHD): 1.54 | OR (marker rs7916629, caseonly, model rec, End-point CVD): 2.11 | OR (marker rs7918692, caseonly, model dom, End-point CVD): 1.48 | OR (marker rs7959965, caseonly, model add, End-point CVD): 0.74 | OR (marker rs8129810, cohort, model dom, End-point CVD): 0.45 | OR (marker rs9478241, caseonly, model rec, End-point CVD): 2.08 | OR (marker rs9914580, caseonly, model dom, End-point CHD): 0.51 | OR (marker rs10012485, cohort, model dom, End-point CVD): 0.54 | OR (marker rs10497883, caseonly, model add, End-point CHD): 0.68 | OR (marker rs10518335, caseonly, model dom, End-point CVD): 0.55 | OR (marker rs10774580, caseonly, model dom, End-point CHD): 0.63 | OR (marker rs10945874, cohort, model add, End-point CVD): 1.72 | OR (marker rs11138314, cohort, model add, End-point CHD): 0.64 | OR (marker rs11585647, caseonly, model dom, End-point CVD): 0.49 | OR (marker rs11721179, caseonly, model dom, End-point CVD): 0.64 | OR (marker rs11734256, cohort, model rec, End-point CVD): 0.57 | OR (marker rs12048902, caseonly, model add, End-point CVD): 0.72 | OR (marker rs12341095, cohort, model rec, End-point CHD): 1.63 | OR (marker rs12646525, cohort, model dom, End-point CVD): 0.59 | OR (marker rs12679254, caseonly, model dom, End-point CVD): 0.79 | OR (marker rs12817873, cohort, model add, End-point CVD): 0.85 | OR (marker rs13107334, cohort, model dom, End-point CVD): 0.53 | OR (marker rs13126170, caseonly, model dom, End-point CVD): 0.53

— US10563263B2, “Genetic polymorphisms associated with statin response and cardiovascular diseases, methods of detection and uses thereof” (CELERA CORPORATION, priority 2010, dated 2020)
